Data published in PMC8125686, “Molecular Basis of Multiple Mitochondrial Dysfunctions Syndrome 2 Caused by CYS59TYR BOLA3 Mutation” (International Journal of Molecular Sciences, 2021).

Target: T1, NFU1 (Homo sapiens, UniProt Q9UMS0)
T1 sequence (Q9UMS0 10-254): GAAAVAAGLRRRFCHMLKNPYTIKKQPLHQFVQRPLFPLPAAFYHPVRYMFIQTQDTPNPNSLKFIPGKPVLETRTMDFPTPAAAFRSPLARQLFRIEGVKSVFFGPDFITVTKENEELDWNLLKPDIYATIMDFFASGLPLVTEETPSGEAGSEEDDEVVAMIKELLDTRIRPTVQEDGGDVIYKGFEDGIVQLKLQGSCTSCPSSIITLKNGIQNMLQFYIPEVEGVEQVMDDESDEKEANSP
Assay: 1H-15N HSQC NMR of cluster assembly on 15N-labelled apo NFU1
Format: binding
Details: cluster donor [2Fe-2S] C59Y BOLA3-GLRX5 at 1:1; 5 mM DTT; 5 mM GSH; anaerobic

[S]12[Fe]3[S]4[Fe]1[S]1[Fe]2[S]3[Fe]41 [[4Fe–4S]2+ cluster]
amount of [4Fe-4S] NFU1 formed in the final mixture: 25%
